Source: patent US8507472B2 (priority 2010, dated 2013)
Several values for one entry are separate records, joined by “and”; a condition that tells them apart may be missing. Equal values may be shown once.

Legend:
Phytophthora infestans = format: in vivo; conditions: in vivo
Sphaerotheca fuliginea = test: Sphaerotheca test (cucumber)/protective; format: in vivo; conditions: in vivo
Procedure, shortened: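 Protective test: young cucumber plants sprayed with compound (DMF/alkylaryl polyglycol ether concentrate diluted in water) at the stated rate, inoculated with S. fuliginea spores 1 day later, then kept in greenhouse at 23 °C, 70% RH. Efficacy scored 7 days post-inoculation; 0% equals untreated control, 100% means no infection.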

Pyrenophora teres = Pyrenophora teres test (barley)/protective; format: in vivo; conditions: in vivo
Procedure, shortened: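 Protective test: young barley plants sprayed at the stated rate with compound in DMF/alkylaryl polyglycol ether diluted with water, inoculated with P. teres spores 1 day later, kept 48 h at 100% rel. humidity and 22° C., then greenhouse at 80% and 20° C. Efficacy scored 7-9 days post-inoculation (0% = control, 100% = no infection).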

Fusarium graminearum [1] = format: in vivo; conditions: in vivo
[2] = test system: Fusarium nivale (var. majus); test: Fusarium nivale (var. majus) test (wheat)/protective; format: in vivo; conditions: 1000 ppm active compound, protective, evaluation 5 days after inoculation
Method: (§1) Solvent: 49 parts by weight of N,N-dimethylacetamide
(§2) Emulsifier: 1 part by weight of alkylaryl polyglycol ether
(§3) To produce a suitable preparation of active compound, 1 part by weight of active compound is mixed with the stated amounts of solvent and emulsifier, and the concentrate is diluted with water to the desired concentration.
(§4) To test for protective activity, young plants are sprayed with the active compound preparation at the stated application rate.
After the spray coating has dried on, the plants are sprayed with spores of a spore suspension of Fusarium nivale (var. majus).
The plants are placed in a greenhouse chamber under a translucent incubation hood at 10° C. and 100% relative atmospheric humidity.
Evaluation is carried out 5 days after the inoculation. 0% means an efficacy which corresponds to that of the control, whereas an efficacy of 100% means that no infection is observed.

Fusarium graminearum [3] = test: microbe, parasite or virus in culture; format: cell-based; conditions: 50 μM
DON/AcDON production = test: microbe, parasite or virus in culture; format: cell-based, Fusarium graminearum; conditions: 7 days at 28° C.
Venturia inaequalis = test: Venturia test (apple)/protective; format: in vivo; conditions: 100 ppm active compound, protective, evaluation 10 days after inoculation
Method: Solvents: 24.5 parts by weight of acetone • 24.5 parts by weight of dimethylacetamide Emulsifier: 1 part by weight of alkylaryl polyglycol ether
(§5) To produce a suitable preparation of active compound, 1 part by weight of active compound is mixed with the stated amounts of solvents and emulsifier, and the concentrate is diluted with water to the desired concentration.
(§6) To test for protective activity, young plants are sprayed with the active compound preparation at the stated application rate. After the spray coating has dried on, the plants are inoculated with an aqueous conidia suspension of the apple scab pathogen Venturia inaequalis and then remain in an incubation cabin at about 20° C. and 100% relative atmospheric humidity for 1 day.
(§7) The plants are then placed in a greenhouse at about 21° C. and a relative atmospheric humidity of about 90%.
(§8) Evaluation is carried out 10 days after the inoculation. 0% means an efficacy which corresponds to that of the control, whereas an efficacy of 100% means that no infection is observed.

Leptosphaeria nodorum = Leptosphaeria nodorum test (wheat)/protective; format: in vivo; conditions: in vivo
Procedure, shortened: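 Young wheat plants were sprayed protectively, then inoculated 1 day later with L. nodorum spores and held 48 h at 100% humidity and 22° C. They were then kept in a greenhouse at 90% humidity and 22° C. Efficacy was scored 7-9 days post-inoculation, where 0% equals control and 100% means no infection.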

Septoria tritici = Septoria tritici test (wheat)/protective; format: in vivo; conditions: in vivo
Method: as §1, §2
To produce a suitable preparation of active compound, 1 part by weight of active compound is mixed with the stated amount of solvent and emulsifier, and the concentrate is diluted with water to the desired concentration.
To test for protective activity, young plants are sprayed with the active compound preparation at the stated application rate. After the spray coating has dried on, the plants are sprayed with a spore suspension of Septoria tritici. The plants remain in an incubation cabin at 20° C. and 100% relative atmospheric humidity for 48 hours. The plants are then placed under a translucent hood at 15° C. and 100% relative atmospheric humidity for a further 60 hours.
The plants are placed in a greenhouse at a temperature of about 15° C. and a relative atmospheric humidity of 80%.
Evaluation is carried out 21 days after the inoculation. 0% means an efficacy which corresponds to that of the control, whereas an efficacy of 100% means that no infection is observed.

Alternaria solani = test: Alternaria test (tomato)/protective; format: in vivo; conditions: in vivo
Procedure, shortened: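 Young tomato plants were sprayed with compound (DMF/emulsifier formulation diluted in water) and inoculated with A. solani spores 1 day later. Plants were kept 24 h at 100% RH and 22 °C, then at 96% RH and 20 °C. Efficacy was scored 7 days post-inoculation, where 0% equals untreated control and 100% means no infection.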

Botrytis cinerea = test: Botrytis test (bean)/protective; format: in vivo; conditions: 100 ppm active compound, protective, evaluation 2 days after inoculation
Method: (§9) Solvents: 24.5 parts by weight of acetone
(§10) • 24.5 parts by weight of dimethylacetamide Emulsifier: 1 part by weight of alkylaryl polyglycol ether
as §5
To test for protective activity, young plants are sprayed with the active compound preparation at the stated application rate. After the spray coating has dried on, 2 small pieces of agar colonized by Botrytis cinerea are placed onto each leaf. The inoculated plants are placed in a dark chamber at about 20° C. and 100% relative atmospheric humidity.
2 days after the inoculation, the size of the infected areas on the leaves is evaluated. 0% means an efficacy which corresponds to that of the control, whereas an efficacy of 100% means that no infection is observed.

Puccinia triticina = Puccinia triticina test (wheat)/protective; format: in vivo; conditions: in vivo
Method: Solvent: 49 parts by weight of […]
as §2, §3, §4
After the spray coating has dried on, the plants are sprayed with spores of a spore suspension of Puccinia triticina. The plants remain in an incubation cabin at 20° C. and 100% relative atmospheric humidity for 48 hours.
The plants are placed in greenhouse at a temperature of about 20° C. and a relative atmospheric humidity of about 80%.
Evaluation is carried out 8 days after the inoculation. 0% means an efficacy which corresponds to that of the control, whereas an efficacy of 100% means that no infection is observed.

Uromyces appendiculatus = test: Uromyces test (bean)/protective; format: in vivo; conditions: in vivo
Method: as §9, §10, §5
as §6, with “spore” for “conidia”, “bean rust” for “apple scab”, “Uromyces appendiculatus” for “Venturia inaequalis”
as §7, §8

CC(=O)Nc1cc(-c2c(-c3ccsc3)nn3c2CCCC3)ccn1 [Example 58]
efficacy in % (Phytophthora infestans): 70% | efficacy in % (Sphaerotheca fuliginea): 96% | efficacy in % (Pyrenophora teres): 90% | efficacy in % (Fusarium graminearum [1]): 100% | efficacy in % [2]: 100% | % inhibition of the fungal growth of Fusarium graminearum at 50 μM (Fusarium graminearum [3]): 100% | % inhibition of DON/AcDON at 50 μM (DON/AcDON production): 100% | efficacy in % (Venturia inaequalis): 99% | efficacy in % (Leptosphaeria nodorum): 94% | efficacy in % (Septoria tritici): 89% | efficacy in % (Alternaria solani): 80% | efficacy in % (Botrytis cinerea): 100% | efficacy in % (Puccinia triticina): 100%

CCC(=O)Nc1cc(-c2c(-c3ccsc3)nn3c2CCCC3)ccn1 [Example 59]
efficacy in % (Sphaerotheca fuliginea): 98% | efficacy in % (Pyrenophora teres): 90% | efficacy in % (Fusarium graminearum [1]): 94% | efficacy in % [2]: 100% | % inhibition of the fungal growth of Fusarium graminearum at 50 μM (Fusarium graminearum [3]): 100% | % inhibition of DON/AcDON at 50 μM (DON/AcDON production): 100% | efficacy in % (Venturia inaequalis): 97% | efficacy in % (Leptosphaeria nodorum): 89% | efficacy in % (Alternaria solani): 70% | efficacy in % (Botrytis cinerea): 100% | efficacy in % (Puccinia triticina): 100%

CCC(=O)Nc1cc(-c2c(-c3ccc(F)cc3)nn3c2CCC3)ccn1 [Example 40]
efficacy in % (Phytophthora infestans): 70% | efficacy in % (Sphaerotheca fuliginea): 94% | efficacy in % (Pyrenophora teres): 95% | efficacy in % (Fusarium graminearum [1]): 100% | efficacy in % (Uromyces appendiculatus): 81% and 75% | efficacy in % [2]: 100% | efficacy in % (Venturia inaequalis): 94% | efficacy in % (Leptosphaeria nodorum): 95% | efficacy in % (Septoria tritici): 90% | efficacy in % (Alternaria solani): 100% | efficacy in % (Botrytis cinerea): 100% | efficacy in % (Puccinia triticina): 100%

C[C@H](O)C(=O)Nc1cc(-c2c(-c3ccccc3)nn3c2CCCC3)ccn1 [Example 25]
efficacy in % (Phytophthora infestans): 80% | efficacy in % (Sphaerotheca fuliginea): 94% | efficacy in % (Pyrenophora teres): 100% | efficacy in % (Uromyces appendiculatus): 94% | efficacy in % [2]: 100% | % inhibition of the fungal growth of Fusarium graminearum at 50 μM (Fusarium graminearum [3]): 92% | % inhibition of DON/AcDON at 50 μM (DON/AcDON production): 99% | efficacy in % (Venturia inaequalis): 94% | efficacy in % (Leptosphaeria nodorum): 95% | efficacy in % (Septoria tritici): 86% | efficacy in % (Alternaria solani): 100% | efficacy in % (Botrytis cinerea): 90% | efficacy in % (Puccinia triticina): 88%

O=C(Nc1cc(-c2c(-c3ccc(F)cc3)nn3c2CCCC3)ccn1)c1ccsc1 [Example 47]
efficacy in % (Phytophthora infestans): 80% | efficacy in % (Sphaerotheca fuliginea): 96% | efficacy in % (Pyrenophora teres): 90% | efficacy in % [2]: 80% | % inhibition of the fungal growth of Fusarium graminearum at 50 μM (Fusarium graminearum [3]): 76% | % inhibition of DON/AcDON at 50 μM (DON/AcDON production): 100% | efficacy in % (Septoria tritici): 100% | efficacy in % (Alternaria solani): 90%

CC(C)(O)C(=O)Nc1cc(-c2c(-c3ccc(F)cc3)nn3c2CCCC3)ccn1 [Example 55]
efficacy in % (Sphaerotheca fuliginea): 95% | efficacy in % (Pyrenophora teres): 95% | efficacy in % (Fusarium graminearum [1]): 83% | efficacy in % [2]: 100% | efficacy in % (Leptosphaeria nodorum): 90% | efficacy in % (Septoria tritici): 90% | efficacy in % (Alternaria solani): 80% | efficacy in % (Puccinia triticina): 100%
